Experimental findings from patent US9199918B2, “Small molecule inhibitors of AGBL2” (Georgetown University, priority 2011, dated 2015) are described below.

Experiment [1] addresses T1, AGBL2 (Homo sapiens, UniProt Q5U5Z8).
T1 construct: His (N); made in house; protein recovered from inclusion bodies
T1 sequence (Q5U5Z8 1-902): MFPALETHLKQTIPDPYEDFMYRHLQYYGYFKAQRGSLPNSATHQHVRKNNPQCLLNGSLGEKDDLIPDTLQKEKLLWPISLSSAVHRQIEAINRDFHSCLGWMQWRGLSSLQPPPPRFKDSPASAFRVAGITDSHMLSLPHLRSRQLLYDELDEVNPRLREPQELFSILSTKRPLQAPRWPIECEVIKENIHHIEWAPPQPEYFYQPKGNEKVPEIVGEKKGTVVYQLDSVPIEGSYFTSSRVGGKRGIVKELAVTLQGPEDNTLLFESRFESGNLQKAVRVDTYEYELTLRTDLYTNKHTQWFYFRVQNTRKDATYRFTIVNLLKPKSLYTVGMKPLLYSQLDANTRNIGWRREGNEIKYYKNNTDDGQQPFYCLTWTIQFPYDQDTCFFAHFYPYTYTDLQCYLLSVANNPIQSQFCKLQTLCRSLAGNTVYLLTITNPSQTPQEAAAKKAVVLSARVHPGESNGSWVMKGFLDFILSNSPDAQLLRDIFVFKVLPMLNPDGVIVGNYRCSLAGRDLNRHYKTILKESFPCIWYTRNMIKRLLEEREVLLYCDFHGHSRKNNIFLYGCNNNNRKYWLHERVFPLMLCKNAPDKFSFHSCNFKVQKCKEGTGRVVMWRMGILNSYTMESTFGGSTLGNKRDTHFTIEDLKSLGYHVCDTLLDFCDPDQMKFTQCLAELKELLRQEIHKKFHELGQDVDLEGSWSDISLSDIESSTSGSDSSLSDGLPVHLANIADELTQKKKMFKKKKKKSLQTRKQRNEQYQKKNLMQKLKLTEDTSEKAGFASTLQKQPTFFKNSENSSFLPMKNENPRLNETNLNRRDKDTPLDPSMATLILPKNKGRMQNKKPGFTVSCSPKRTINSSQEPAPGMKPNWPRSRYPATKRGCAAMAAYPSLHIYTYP
As to the kind of experiment: Enzyme inhibition kinetic assay (fluorometric, release of tyrosine from hydroxycoumarin-conjugated tubulin CTT substrate). The format is biochemical. Conditions: 1 nM recombinant AGBL2; substrate 1 μM; 25° C., pH 7.5; apparent Ki fitted to Morrison equation for tight-binding inhibitors. The text has this:
Fluorescence Resonance Energy Transfer (FRET) principle can be applied to generate real-time enzymatic activity data. The tyrosinated C-terminal tail of tubulin has a tyrosine at the C-terminal. Tyrosines absorb at 270 nm and emit in the 280 to 350 nm range with a λMax=303 nm. Adding a hydroxycoumarin that absorbs in the range of 300 to 350 nm to the N-terminal of the CTT of tubulin (see FIG. 5) allows the quenching of the tyrosine emission that can be monitored at 303 nm. Emissions at 303 nm can be detected after the cleavage of the tyrosine residue since the latter will follow a Brownian motion and become physical situated far from the quencher (Hydroxycoumarin). Assays can be performed at 25° C. in 10 mM CaCl2, 0.2 M NaCl, and 0.05% Brij-35 in 50 mM HEPES, pH 7.5, over a substrate concentration range of […] and an enzyme concentration range of 0.1-50 nM. An exemplary assay was performed by incubating 186 μL of buffer solution, 4 μL of substrate solution, and then adding 10 μL of AGBL2 solution. The mixture was then incubated for 15 to 120 minutes at 25° C.
Kinetic assays of the inhibition of AGBL2 were carried out using the substrate described in Example 4 to measure inhibition constants. Enzymatic assays were performed at 25° C. in 50 mM HEPES buffer at pH 7.5 in the presence of 10 mM CaCl2, 0.2 M NaCl, and 0.01% or 0.05% Brij-35 with substrate concentrations of 1 μM. The release of tyrosine was monitored by measuring fluorescence (excitation and emission wavelengths of 270 nm and 303 nm, respectively). The compounds tested as inhibitors included compound Sd-1, compound Sd-2, compound Sd-3, and compound Sd-4. All stock solutions of inhibitors were in methanol. For inhibition assays, 10 μL of inhibitor stock solution, 176 μL of assay buffer, and 10 μL of enzyme stock solution were mixed and incubated for 30 to 60 minutes prior to initiation of the assay, which was accomplished by adding and mixing 4 μL of substrate stock solution. Enzyme concentrations ranged from 0.2 to 7 nM during the assay. Apparent inhibition constant (Ki^app) values were calculated by fitting the kinetics data to the Morrison equation for tight-binding inhibitors, where vi and vo are the initial rates with and without inhibitor, respectively, and [E]o and [I]o are the initial (total) enzyme and inhibitor concentrations, respectively. The Ki values of the four tested compounds and of recombinant RARRES1, all including 1 nM of recombinant AGBL2) are shown in Table 1.

The target in experiment [2] is T1, AGBL2. As to the kind of experiment: High throughput enzyme kinetic (FRET) assay, saturation curves in the presence of inhibitor. The format is biochemical. Particulars: AGBL2 1 nM; Sd-4 at 1 nM, 5 nM and 10 nM; substrate 0 to 3 μM. The text has this: Fluorescence Resonance Energy Transfer (FRET) principle can be applied to generate real-time enzymatic activity data. The tyrosinated C-terminal tail of tubulin has a tyrosine at the C-terminal. Tyrosines absorb at 270 nm and emit in the 280 to 350 nm range with a λMax=303 nm. Adding a hydroxycoumarin that absorbs in the range of 300 to 350 nm to the N-terminal of the CTT of tubulin (see FIG. 5) allows the quenching of the tyrosine emission that can be monitored at 303 nm. Emissions at 303 nm can be detected after the cleavage of the tyrosine residue since the latter will follow a Brownian motion and become physical situated far from the quencher (Hydroxycoumarin). […]
The reaction rate can be analyzed using different substrate concentrations and the saturation curve can be drawn. The maximum reaction rate (Vmax) and the substrate concentration at half the Vmax referred to as the Michaelis-Menten constant (KM) can be determined from the saturation curve. Inhibitors can also be analyzed and a saturation curve in the presence of inhibitor can be drawn. The reaction rate was analyzed using substrate concentrations over a range of 0 to 3 μM. […] The dissociation constant of the inhibitor (Ki) can be calculated using the following equation: Ki=[Inhibitor]/((KM,obs/KM)−1.0).

On to `Cc1cc(F)cnc1CC(=O)O` [Sd-1], for which the Ki at AGBL2 [1] is 173 nM. `Cc1cc(C(F)(F)F)cnc1CC(=O)O` [Sd-2]: at AGBL2 [1], the Ki amounted to 87 nM.

Turning to `CC(C)c1ccc(Sc2ccc(F)cc2CC(=O)O)cc1` [Sd-3], at AGBL2 [1], the Ki was found to be 428 nM. With `O=C(O)Cc1cccc(C(=O)Nc2ccc3c(c2)OCO3)c1` [Sd-4], the Ki on AGBL2 [1] was determined as 4.89 nM. In addition, on AGBL2 [2], the “inhibition of AGBL2 activity at varying substrate concentrations (FIG. 6)” value is reported as “inhibition of AGBL2 activity”.

B1: RARRES1: recombinant N-His RARRES1 protein (MW ~31 kDa) obtained from inclusion bodies (protein, UniProt P49788 1-294, looked up)
Retinoic acid receptor …: MQPRRQRLPAPWSGPRGPRPTAPLLALLLLLAPVAAPAGSGDPDDPGQPQDAGVPRRLLQQAARAALHFFNFRSGSPSALRVLAEVQEGRAWINPKEGCKVHVVFSTERYNPESLLQEGEGRLGKCSARVFFKNQKPRPTINVTCTRLIEKKKRQQEDYLLYKQMKQLKNPLEIVSIPDNHGHIDPSLRLIWDLAFLGSSYVMWEMTTQVSHYYLAQLTSVRQWKTNDDTIDFDYTVLLHELSTQEIIPCRIHLVWYPGKPLKVKYHCQELQTPEEASGTEEGSAVVPTELSNF
modifications: N-terminal His tag
notes: recombinant N-His RARRES1 protein (MW ~31 kDa) obtained from inclusion bodies
As to B1, the Ki with AGBL2 [1] was determined as 27 nM.
